Test system: ML resistant Cooperia strains
Settings: doses ¼ to ⅓rd lower than the standard label dose (7.5 mg/kg)
Procedure: Individual faecal samples (for individual egg count and group larval culture) were collected as per protocol at 7 days intervals at Days 7, 14, 21, 28, 35, 42 and 49. […] Weighing was performed at the beginning, middle, and end of 49 day trial.

## c1ccc([C@H]2CN3CCSC3=N2)cc1 [levamisole]
  Control of ML resistant Cooperia strains: 100%
